Columns and labels:
[1] = Differential scanning calorimetry (DSC) of drug samples; type: physicochemical; settings: for ΔHc / Tg of drug: DSC scanning rate 10° C./min
Description: The amorphous state of the amorphous drug core is determined by subjecting a population of nanoparticles that comprise one or more nanoparticles that comprise the recited amorphous drug core to differential scanning calorimetry (DSC). In an embodiment, a DSC method according to the invention used a Perkin-Elmer DSC-7 or a Diamond DSC calorimeter applied for the measurement of specific transition temperatures of tested samples. […] The instrument was calibrated using indium, tin and zinc certified reference materials (CRMs) The amorphous state of the amorphous drug core, as measured by DSC is expressed as a weight fraction of the weight of amorphous material in the amorphous drug core to the total weight of the amorphous drug core, expressed as an average value across the population of nanoparticles being measured. For instance, if a population of nanoparticles was measured using DSC, and the amorphous state was determined to be a particular value for the population, that value would be considered the average amorphous state for each nanoparticle within the population. An inventive amorphous drug core may contain a small amount of crystalline drug. […] “Glass forming ability” or “GFA” means the ratio of Tg to Tm. It can be calculated as: […] is a measure of the tendency of an amorphous drug to remain in an amorphous state. […] “Glass transition temperature” or “Tg” means that temperature at which a material transitions to a glassy state from a liquid state, as measured at standard atmospheric pressure. […] C. […] C.

[2] = Water solubility of drug; type: physicochemical; settings: 25 °C
Description: “Water solubility” means a measure of the maximum possible concentration of a drug dissolved in water. The water temperature may be specified; in an embodiment water solubility is determined at 25 Deg. C. Units of measurement of water solubility are typically mass/volume, such as mg/ml. The water solubility of drug useful in the practice of the present invention is less than or equal to about 1 mg/ml at 25 Deg. C.; preferably less than or equal to about 0.1 mg/ml at 25 Deg. C.; more preferably less than or equal to about 0.01 mg/ml at 25 Deg. C., still more preferably less than or equal to about 1 microgram/ml at 25 Deg. C.

glass forming ability (GFA), Tg/Tm [1]	ΔHc [1] [J/g]	Tg of drug [1] [°C]	SMILES	further results
0.77			CC(C)(C)c1ccc(C(O)CCCN2CCC(C(O)(c3ccccc3)c3ccccc3)CC2)cc1 (stereo not shown) [terfenadine, Terfenadine]	
0.81			O=C(NN1CCCCC1)c1nn(-c2ccc(Cl)cc2Cl)c2c1CCC/C2=C\c1ccc(F)cc1 [COMPOUND 1]	solubility [2]: ≤ 0.2 ng/mL
	108.63		CC(C)(C)c1ccc(C(O)CCCN2CCC(C(O)(c3ccccc3)c3ccccc3)CC2)cc1 (stereo not shown) [Crystalline terfenadine, terfenadine]	
	0	87.07	O=C(NN1CCCCC1)c1nn(-c2ccc(Cl)cc2Cl)c2c1CCC/C2=C\c1ccc(F)cc1 [Amorphous COMPOUND 1]	
	77.64		O=C(NN1CCCCC1)c1nn(-c2ccc(Cl)cc2Cl)c2c1CCC/C2=C\c1ccc(F)cc1 [Crystalline COMPOUND 1]	
	10.35	53.77	CC(C)(C)c1ccc(C(O)CCCN2CCC(C(O)(c3ccccc3)c3ccccc3)CC2)cc1 (stereo not shown) [Amorphous terfenadine, terfenadine]	crystallinity (crystalline portion) by DSC ([1]; relative to original crystallinity): less than 20%
